Earlier results, collected in patent US20120070506A1, “Animal Treatment” (BOMAC RESEARCH LIMITED, priority 2009, published 2012).

Tested on: animals
Conditions: veterinary treatment

For `CC(C(=O)O)c1ccc2c(c1)[nH]c1ccc(Cl)cc12` (stereo not drawn) [carprofen, 6-chloro-alpha-methyl-9H-carbozole-2-acetic acid], the known adverse effect is given as “hepatotoxicity (acute hepatic necrosis) or other liver damage”.
